Laboratory results published in US20260062422A1 (Halda Therapeutics OpCo, Inc., priority 2022, published 2026).

How the values were obtained:
[1] = test system: T-Rex 293 cell line SC3 cells having increased expression of androgen receptor protein due to exposure to doxycycline; test: Cellular growth inhibition, T-Rex 293 SC3 cells with doxycycline (androgen receptor induced), CellTiter-Glo; type: cell-based; conditions: T-Rex 293 SC3 cells with 10 ng/mL doxycycline (increased androgen receptor expression)
Procedure, shortened: (§1)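 Luminescence read-out (CellTiter-Glo 2.0) after 72 h compound exposure; GI50 by four-parameter nonlinear regression, baseline set at zero luminescence. SC3 cells, a doxycycline-inducible wild-type AR clone of T-Rex 293, were cultured ±10 ng/mL doxycycline in charcoal-dextran FBS medium.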

[2] = test system: T-Rex 293 cell line SC3 cells lacking increased expression of androgen receptor protein; test: Cellular growth inhibition, T-Rex 293 SC3 cells without doxycycline, CellTiter-Glo; type: cell-based; conditions: T-Rex 293 SC3 cells not exposed to doxycycline, CellTiter-Glo 2.0
Procedure, shortened: as §1

VCaP cells = test: Cellular growth inhibition assay for VCaP cells, CellTiter-Glo; type: cell-based, human; conditions: 72 hours treatment, CellTiter-Glo 2.0
Procedure, shortened: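 GI50 values come from four-parameter curve fits of luminescence data normalized to a zero baseline. Compound, in medium with 0.5% DMSO, was added one day after plating and left for 72 h before CellTiter-Glo 2.0 addition.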

T47D cells = test: Cellular growth inhibition assay for T47D cells, CellTiter-Glo; type: cell-based, human; conditions: 72 hours treatment, CellTiter-Glo 2.0 cell viability
Procedure, shortened: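 Cells are plated at 3000/well and allowed 24 h before treatment. Test compound in medium containing 0.5% DMSO is then added, with DMSO-only wells as negative control, and plates are incubated 72 h at 37 °C. ATP luminescence (CellTiter-Glo 2.0) is then fitted to four parameters to derive GI50.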

Compound | GI50 ([1]; 72 h) [nM] | GI50 ([2]; 72 h) [nM] | GI50 (VCaP cells; Homo sapiens, VCaP, 72 h) [nM] | GI50 (T47D cells; Homo sapiens, T47D, 72 h) [nM] | GI50 ([1]; 72 hours) [nM] | GI50 ([2]; 72 hours) [nM] | GI50 (VCaP cells) [nM] | GI50 (T47D cells) [nM]
Cc1sc2c(c1C)C(c1ccc(C[C@H]3C[C@H]([C@@H]4CCCN(c5ncc(C(=O)N[C@H]6C(C)(C)[C@H](Oc7ccc(C#N)c(Cl)c7)C6(C)C)cn5)C4)C3)cc1)=N[C@@H](Cc1ncco1)c1nnc(C)n1-2 [Compound I-162] | < 500 | < 500 | < 500 | < 500 |  |  |  | 
Cc1sc2c(c1C)C(c1ccc(CCCOC3CCN(c4ncc(C(=O)N[C@H]5C(C)(C)[C@H](Oc6ccc(C#N)c(Cl)c6)C5(C)C)cn4)CC3)cc1)=N[C@@H](Cc1ccncc1)c1nnc(C)n1-2 [Compound I-215] | < 500 | < 500 | < 500 | < 500 |  |  |  | 
Cc1sc2c(c1C)C(c1ccc(N3CCN(C4CN(c5ncc(C(=O)NC6C(C)(C)C(Oc7ccc(C#N)c(Cl)c7)C6(C)C)cn5)C4)CC3)cc1)=N[C@@H](CC(=O)OC(C)(C)C)c1nnc(C)n1-2 (stereo partly drawn) [Compound I-236, tert-butyl 2-[(9S)-7-[4-[4-[1-[5-[[3-(3-chloro-4-cyano-phenoxy)-2,2,4,4-tetramethyl-cyclobutyl]carbamoyl]pyrimidin-2-yl]azetidin-3-yl]piperazin-1-yl]phenyl]-4,5,13-trimethyl-3-thia-1,8,11,12-tetrazatricyclo[8.3.0.02,6]trideca-2(6),4,7,10,12-pentaen-9-yl]acetate] | < 500 | 500 to 1500 | < 500 | < 500 |  |  |  | 
Cc1noc2c1-c1ccccc1C(c1ccc(OC3CC4(CCN(c5ncc(C(=O)N[C@H]6C(C)(C)[C@H](Oc7ccc(C#N)c(Cl)c7)C6(C)C)cn5)CC4)C3)cc1)=N[C@H]2Cc1ncco1 [Compound I-222] | < 500 | > 3000 | < 500 | > 3000 |  |  |  | 
Cc1sc2c(c1C)C(c1ccc(O[C@H]3CC[C@]4(CCN(c5ncc(C(=O)N[C@H]6C(C)(C)[C@H](Oc7ccc(C#N)c(Cl)c7)C6(C)C)cn5)C4)CC3)cc1)=N[C@@H](Cc1ncco1)c1nnc(C)n1-2 [Compound I-178] | < 500 | < 500 | < 500 | < 500 |  |  |  | 
Cc1sc2c(c1C)C(c1ccc(CC[C@@H]3CC[C@@]4(CCCN(c5ncc(C(=O)N[C@H]6C(C)(C)[C@H](Oc7ccc(C#N)c(Cl)c7)C6(C)C)cn5)C4)C3)cc1)=N[C@@H](Cc1ncco1)c1nnc(C)n1-2 [Compound I-249] | > 3000 | > 3000 | > 3000 | > 3000 |  |  |  | 
Cc1sc2c(c1C)C(c1ccc(CC[C@H]3C[C@@]4(CCCN(c5ncc(C(=O)N[C@H]6C(C)(C)[C@H](Oc7ccc(C#N)c(Cl)c7)C6(C)C)cn5)C4)C3)cc1)=N[C@@H](C)c1nnc(C)n1-2 [Compound I-368] | < 500 | > 3000 | < 500 | < 500 |  |  |  | 
Cc1sc2c(c1C)C(c1ccc(OC3CC4(C3)C[C@H](C)N(c3ncc(C(=O)N[C@H]5C(C)(C)[C@H](Oc6ccc(C#N)c(Cl)c6)C5(C)C)cn3)[C@@H](C)C4)cc1)=N[C@@H](Cc1ncco1)c1nnc(C)n1-2 (stereo partly shown) [Compound I-282] | < 500 | > 3000 | > 3000 | < 500 |  |  |  | 
Cc1sc2c(c1C)C(c1ccc(C[C@@H]3CC[C@@]4(CCCN(c5ncc(C(=O)N[C@H]6C(C)(C)[C@H](Oc7ccc(C#N)c(Cl)c7)C6(C)C)cn5)C4)C3)cc1)=N[C@@H](Cc1ncco1)c1nnc(C)n1-2 [Compound I-164] | < 500 | > 3000 | 500 to 1500 | 500 to 1500 |  |  |  | 
Cc1sc2c(c1C)C(c1ccc(C#C[C@H]3C[C@@]4(CCCN(c5ncc(C(=O)N[C@H]6C(C)(C)[C@H](Oc7ccc(C#N)c(Cl)c7)C6(C)C)cn5)C4)C3)cc1)=N[C@@H](Cc1ncco1)c1nnc(C)n1-2 [Compound I-268] | < 500 | > 3000 | 1500 to 3000 | 500 to 1500 |  |  |  | 
Cc1sc2c(c1C)C(c1ccc(N3CCC[C@H](C(=O)N4CCCC4c4ncc(C(=O)N[C@H]5C(C)(C)[C@H](Oc6ccc(C#N)c(Cl)c6)C5(C)C)cn4)C3)cc1)=N[C@@H](Cc1ncco1)c1nnc(C)n1-2 (stereo partly shown) [Compound I-314] | < 500 | > 3000 | < 500 | < 500 |  |  |  | 
CCNC(=O)C[C@@H]1N=C(c2ccc(CN3CC4CN(c5ncc(C(=O)N[C@H]6C(C)(C)[C@H](Cc7ccc(C#N)c(Cl)c7)C6(C)C)cn5)CC4C3)cc2)c2c(sc(C)c2C)-n2c(C)nnc21 (stereo partly shown) [Compound I-94] | < 500 | 500 to 1500 | < 500 | 500 to 1500 |  |  |  | 
Cc1sc2c(c1C)C(c1ccc(OC3CC4(CCN(c5ncc(C(=O)N[C@H]6C(C)(C)[C@H](Oc7ccc(C#N)c(Cl)c7)C6(C)C)cn5)CC4)C3)cc1)=N[C@@H](Cc1ncon1)c1nnc(C)n1-2 [Compound I-279] | < 500 | > 3000 | 1500 to 3000 | < 500 |  |  |  | 
CC[C@@H]1N=C(c2ccc(OC3CC4(C3)CC3(CCN(c5ncc(C(=O)N[C@H]6C(C)(C)[C@H](Oc7ccc(C#N)c(Cl)c7)C6(C)C)cn5)CC3)C4)cc2)c2c(sc(C)c2C)-n2c(C)nnc21 [Compound I-606] | < 500 | > 3000 | < 500 | > 3000 |  |  |  | 
Cc1sc2c(c1C)C(c1ccc(N3CCC[C@H](C(=O)NCc4ncc(C(=O)N[C@H]5C(C)(C)[C@H](Oc6ccc(C#N)c(Cl)c6)C5(C)C)cn4)C3)cc1)=N[C@@H](Cc1ncco1)c1nnc(C)n1-2 [Compound I-332] |  |  |  |  | > 3000 | > 3000 | > 3000 | > 3000
Cc1sc2c(c1C)C(c1ccc(C(=O)N3CCN(C(=O)c4ncc(C(=O)N[C@H]5C(C)(C)[C@H](Oc6ccc(C#N)c(Cl)c6)C5(C)C)cn4)CC3)cc1)=N[C@@H](Cc1ncco1)c1nnc(C)n1-2 [Compound I-285] | > 3000 | > 3000 | > 3000 | > 3000 |  |  |  | 
[2H]C([2H])(c1ccc(C2=N[C@@H](Cc3ncco3)c3nnc(C)n3-c3sc(C)c(C)c32)cc1)N1CC[C@]2(CCCN(c3ncc(C(=O)N[C@H]4C(C)(C)[C@H](Oc5ccc(C#N)c(Cl)c5)C4(C)C)cn3)C2)C1 [Compound I-434] | < 500 | > 3000 | < 500 | < 500 |  |  |  | 
Cc1sc2c(c1C)C(c1ccc(CC[C@@H]3CC[C@@]4(CCCN(c5ncc(C(=O)N[C@H]6C(C)(C)[C@H](Oc7ccc(C#N)c(Cl)c7)C6(C)C)cn5)C4)C3)cc1)=N[C@H](Cc1ncco1)c1nnc(C)n1-2 [Compound I-252] | < 500 | > 3000 | > 3000 | < 500 |  |  |  | 
Cc1sc2c(c1C)C(c1ccc(C[C@@H]3CC[C@]4(C3)CN(c3ncc(C(=O)N[C@H]5C(C)(C)[C@H](Oc6ccc(C#N)c(Cl)c6)C5(C)C)cn3)CCO4)cc1)=N[C@H](Cc1ncco1)c1nnc(C)n1-2 [Compound I-312] | < 500 | < 500 | < 500 | 1500 to 3000 |  |  |  | 
Cc1sc2c(c1C)C(c1ccc(N3CC(C4CCN(c5ncc(C(=O)N[C@H]6C(C)(C)[C@H](Oc7ccc(C#N)c(Cl)c7)C6(C)C)cn5)C4)C3)cc1)=N[C@@H](C)c1nnc(C)n1-2 (stereo partly shown) [Compound I-617] |  |  |  |  | < 500 | < 500 | < 500 | < 500
CC[C@@H]1N=C(c2ccc(N3CC(C4CCN(c5ncc(C(=O)N[C@H]6C(C)(C)[C@H](Oc7ccc(C#N)c(Cl)c7)C6(C)C)cn5)CC4)C3)cc2)c2c(sc(C)c2C)-n2c(C)nnc21 [Compound I-595] | < 500 | > 3000 | < 500 | > 3000 |  |  |  | 
Cc1sc2c(c1C)C(c1ccc(N[C@H]3CC[C@H](CNc4ncc(C(=O)N[C@H]5C(C)(C)[C@H](Oc6ccc(C#N)c(Cl)c6)C5(C)C)cn4)CC3)cc1)=N[C@@H](Cc1ncco1)c1nnc(C)n1-2 [Compound I-649] | < 500 | < 500 | < 500 | < 500 |  |  |  | 
